{"source": "PubChem BioAssay (NCI)", "note": "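Each compound was tested at five concentrations against cells in 96-well plates for 48 hours. GI50: concentration for 50% inhibition of growth. TGI: total growth inhibition.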"}
{"system": "MALME-3M melanoma", "test": "NCI tumour cell line growth inhibition, 48 h", "units": {"TGI": "µM", "GI50": "µM"}}
{"smiles": "Cc1cccc2c(=O)cc(-c3ccccc3)[nH]c12", "TGI": "> 100"}
{"smiles": "Cc1nc2ccccc2c(=O)n1-c1ccccc1I", "TGI": "> 100"}
{"smiles": "CN1C(=O)C(C)(C)C2(SC(C)(C)C2(C)C)N(C)C1=S", "note": "(centres undefined)", "TGI": "> 100"}
{"smiles": "N#CCCN(CCC#N)c1ccc(/C=C2\\N=C(c3cc([N+](=O)[O-])ccc3Cl)OC2=O)cc1", "TGI": "> 100"}
{"smiles": "CC1(c2ccc(F)cc2)C(C#N)C(=O)NC(=O)C1C#N", "note": "(centres undefined)", "TGI": "> 100"}
{"smiles": "O=C1C2C(C(=O)N1OS(=O)(=O)c1ccccc1)N(Cc1ccccc1)C(=O)N2Cc1ccccc1", "note": "(centres undefined)", "TGI": "> 100"}
{"smiles": "COc1ccc2c(C3=C(c4cn(C)c5ccccc45)C(=O)NC3=O)cn(C)c2c1", "GI50": "> 25", "TGI": "> 25"}
{"smiles": "Cc1ccc(N=Nc2ccc(N(CCC#N)CCC#N)cc2C)c(Br)c1", "TGI": "> 100"}
{"smiles": "Cc1cc(C)nc(NS(=O)(=O)c2ccc(NC(=O)c3ccc(Cl)c4c(Nc5ccc(S(=O)(=O)Nc6nc(C)cc(C)n6)cc5)c5ccccc5nc34)cc2)n1", "TGI": 53.5}
{"smiles": "COc1ccc2c3c1C(=O)CCCC3CO2", "note": "(centres undefined)", "TGI": "> 100"}
{"smiles": "N#CC(c1ccc(Cl)cc1)c1cccc(C(C#N)c2ccc(Cl)cc2)n1", "note": "(centres undefined)", "TGI": "> 100"}
{"smiles": "O=C1/C(=C/c2ccccc2)CN(C(=O)C(Cl)(Cl)Cl)C/C1=C\\c1ccccc1", "TGI": 6.01}
{"smiles": "O=S1(=O)c2ccccc2NC(c2ccc3ccccc3c2)CC1c1ccccc1F", "note": "(centres undefined)", "TGI": "> 100"}
{"smiles": "Cc1nc2ccccc2c(N)c1-c1cc(C)c2c(C)nc3ccccc3c2n1", "GI50": 1.27, "TGI": 2.59}
{"smiles": "Cc1ccc(NC2=C(Cl)C(=O)N(Cc3ccccc3)C2=O)cc1O", "GI50": 24.1, "TGI": "> 100"}
{"system": "IGROV1 ovarian", "test": "NCI tumour cell line growth inhibition, 48 h", "units": {"TGI": "µM", "GI50": "µM"}}
{"smiles": "CCN(CCO)CC1CCCC2CCCCC21", "note": "(centres undefined)", "TGI": "> 100"}
{"smiles": "CC[C@@]1(O)C[C@H](OC2CC(N(C)C)C(O)C(C)O2)c2c(O)c3c(c(O)c2[C@H]1OC1CC(N(C)C)C(O)C(C)O1)C(=O)c1cccc(O)c1C3=O", "note": "(some centres undefined)", "GI50": "< 0.01", "TGI": 2.94}
{"smiles": "COC1(OC)CCC2C1C1CCC(OC)(OC)C21", "note": "(centres undefined)", "TGI": "> 50"}
{"smiles": "NNC(=O)Nc1cccnc1", "TGI": "> 100"}
{"smiles": "CC/C=C\\CCC/C=C1/C(=O)C=C[C@@H]1C/C=C\\CCCC(=O)OC", "GI50": 3.3, "TGI": 11.5}
{"smiles": "COc1ccc(-c2nc3sccn3c2/C(N)=N/C(=N)N)cc1OC", "GI50": 3.26, "TGI": 7.11}
{"smiles": "CCCCCCCCCCCOc1ccc(C(=O)C(=O)c2ccc(OCCCCCCCCCCC)c(OCCCCCCCCCCC)c2)cc1OCCCCCCCCCCC", "TGI": "> 100"}
{"smiles": "Cn1cnc([N+](=O)[O-])c1Sc1nnc(-c2cccnc2)n1C", "TGI": "> 100"}
{"smiles": "CCOC(=O)C1=C(C)NC(=S)NC1c1ccccc1", "note": "(centres undefined)", "TGI": "> 100"}
{"smiles": "COC1=CC(=O)c2nc(-c3ccncc3)[nH]c2C1=O", "GI50": "> 100", "TGI": "> 100"}
{"smiles": "O=C(/C=C/c1ccccc1)NC1C=Nc2ccc(Cl)cc2NC1=O", "note": "(centres undefined)", "TGI": "> 100"}
{"smiles": "CC(C)C/C(CC(=O)CCC(=O)Nc1ccccc1[N+](=O)[O-])=N\\NC(=O)c1cc2ccccc2cc1O", "TGI": "> 100"}
{"smiles": "O=C(O)c1ccccc1[Se][Se]c1ccccc1C(=O)O", "TGI": "> 100"}
{"smiles": "COc1cc(CNc2cnc3cc(N)cc(N)c3n2)cc(OC)c1", "GI50": 33.6, "TGI": "> 100"}
{"smiles": "O=C(O)CCc1coc2ccc(O)cc12", "TGI": "> 100"}
{"smiles": "Clc1cc2nsnc2c(Cl)n1", "TGI": 86.3}
{"smiles": "N#CC1C(C#N)C2(c3ccccc3)C(c3ccccc3)=NN(c3ccccc3)CC12", "note": "(centres undefined)", "TGI": "> 100"}
{"smiles": "COc1cc(Cc2cnc(/N=C3\\C(=O)N(CN4CCN(c5c(F)cc6c(=O)c(C(=O)O)cn(C7CC7)c6c5OC)CC4C)c4ccc(F)cc43)nc2N)cc(OC)c1OC", "note": "(centres undefined)", "GI50": 25.1, "TGI": "> 100"}
{"smiles": "Cc1cccc2c(=O)cc(-c3ccccc3)[nH]c12", "TGI": "> 100"}
{"smiles": "O=C(Nc1ccccc1)NS(=O)(=O)c1ccc(-n2nc3c(c2-c2cccs2)Cc2ccccc2-3)cc1", "GI50": 21.4, "TGI": "> 100"}
{"smiles": "CCCCOC(=O)C1OC(O[C@H]2CCC3(C)C(CCC4(C)C3CC=C3C5CC(C)(C)CCC5(C(=O)O)CC[C@]34C)C2(C)C)C(OC2OC(CO)C(O)C(O)C2O)C(OC2OC(CO)C(O)C(O)C2O)C1O", "note": "(some centres undefined)", "GI50": "> 100", "TGI": "> 100"}
{"smiles": "Cc1nc2ccccc2c(=O)n1-c1ccccc1I", "TGI": "> 100"}
{"smiles": "CN1C(=O)C(C)(C)C2(SC(C)(C)C2(C)C)N(C)C1=S", "note": "(centres undefined)", "TGI": "> 100"}
{"smiles": "N#CCCN(CCC#N)c1ccc(/C=C2\\N=C(c3cc([N+](=O)[O-])ccc3Cl)OC2=O)cc1", "TGI": "> 100"}
{"smiles": "CC1=C(C(=O)Nc2ccc(Cl)c(Cl)c2)C(c2cccc(Oc3ccccc3)c2)NC(=S)N1", "note": "(centres undefined)", "GI50": 7.72, "TGI": 19}
{"smiles": "CC1(c2ccc(F)cc2)C(C#N)C(=O)NC(=O)C1C#N", "note": "(centres undefined)", "TGI": "> 100"}
{"smiles": "O=C1C2C(C(=O)N1OS(=O)(=O)c1ccccc1)N(Cc1ccccc1)C(=O)N2Cc1ccccc1", "note": "(centres undefined)", "TGI": "> 100"}
